# In patent publication US6750244B2, “Compounds active at a novel site on receptor-operated calcium channels useful for treatment of neurological disorders and diseases” (NPS Pharmaceuticals, Inc., priority 1993, dated 2004):
# Like-named read-outs stand apart in the source and are kept apart here.
# Assays:
# [1] = test system: sound-induced seizures; assay: Sound-induced seizures in Frings mice (reflex epilepsy); type: in vivo; conditions: Mus musculus, Frings mice
# [2] = test system: motor performance; assay: Acute motor impairment (rotorod) in mice; conditions: Frings mice, i.p.
# Protocol: (§1) In this assay, Frings and CF1 mice were injected with test compound and placed on a knurled rod which rotated at a speed of 6 rpm. The ability of the mice to maintain equilibrium for long periods of time was determined; those mice that were unable to maintain equilibrium on the rotorod for 1 min in each of 3 trials were considered impaired.
# [3] = target: NMDA receptor-ionophore complex (site labeled by [3H]MK-801); assay: Inhibition of [3H]MK-801 binding in rat cortical/hippocampal washed membrane preparations; conditions: read-out: IC50 (μM) vs. [3H]MK-801; rat cortical/hippocampal washed membranes
# [4] = test system: mean arterial blood pressure; conditions: i.v.
# [5] = Lethality (LD50) after oral administration in Frings mice; conditions: mouse, in vivo
# [6] = test system: NMDA receptor; assay: Inhibition of NMDA/glycine-induced increases in intracellular calcium in cultured rat cerebellar granule cells (RCGC); type: cell-based; conditions: NMDA/glycine-induced increases in intracellular calcium, cultured rat cerebellar granule cells; read-out: IC50 (μM) vs. NMDA
# [7] = test system: thermal nociception; type: in vivo, rats; conditions: 25 mg/kg i.p.
# Protocol: In this standard assay, the thermal nociceptive stimulus was 52° C. warm water with the latency to tail flick or withdrawal taken as the endpoint.
# [8] = test system: maximal electroshock-induced seizures; assay: Maximal electroshock-induced seizures in rats; type: in vivo; conditions: rats, oral, 25 mg/kg
# [9] = test system: behavior; assay: Behavioral effects in conscious beagle dogs
# [10] = test system: delayed rectifier potassium channel; assay: Inhibition of delayed rectifier potassium channel in cultured N1E-115 neuroblastoma cells; type: cell-based; conditions: read-out: Delayed rectifier potassium channel: estimated IC50
# [11] = test system: thermal nociception; type: in vivo, rats; conditions: 25 mg/kg i.p.; remark: listed apart in the source
# Protocol: In these experiments, a 52° C. hot plate was used as the nociceptive stimulus.
# [12] = in vivo; conditions: Frings, mouse, in vivo, ip
# Protocol: as §1
# [13] = test system: focal ischemic stroke; assay: Rat model of focal ischemic stroke (vessel occlusion); type: in vivo, rats; conditions: i.p. 2 mg/kg 30 min prior to vessel occlusion and 2 mg/kg 3 hr post-occlusion
# [14] = test system: mean arterial pressure, heart rate, ECG; assay: Cardiovascular activity in conscious beagle dogs
# [15] = target: T1, serotonin uptake site (Rattus norvegicus, UniProt P31652); assay: Serotonin uptake binding assay: [3H]citalopram binding to rat forebrain membranes
# T1 construct: from tissue; host or cells: rat forebrain membranes (per the assay title)
# [16] = target: T2, norepinephrine uptake site (Rattus norvegicus, UniProt Q63380); assay: Norepinephrine uptake binding assay: [3H]desipramine binding to rat cortical membranes
# T2 construct: from tissue; host or cells: rat cortical membranes (per the assay title)
# [17] = test system: chronic neuropathic pain; assay: Rat model of chronic neuropathic pain; type: in vivo, rats
# [18] = test system: neuronal vacuolization; conditions: i.p.
# [19] = test system: behavior; assay: Behavioral effects in conscious male NMRI mice
# [20] = test system: central muscarinic cholinergic receptor; type: binding, rat
# [21] = target: T3, dopamine uptake site (Cavia porcellus, UniProt H0WCX4); assay: Dopamine uptake binding assay: [3H]WIN-35,428 binding to guinea pig striatal membranes
# T3 construct: from tissue; host or cells: guinea pig striatal membranes (per the assay title)
# [22] = test system: T4, L-type calcium channel; assay: Inhibition of KCl depolarization-induced increases in intracellular calcium in cultured rat cerebellar granule cells; type: cell-based; conditions: cultured rat cerebellar granule cells; read-out: L-type calcium channel: estimated IC50, KCl depolarization-induced increases in intracellular calcium
# T4 construct: L-type calcium channel: estimated IC50, KCl depolarization-induced increases in intracellular calcium; other: cultured
# Description: The ability of arylalkylamines to inhibit dihydropyridine-sensitive Ca^2+ channels was examined in cerebellar granule cells and a rat aortic smooth muscle cell line, A7r5 cells.
# [23] = test system: motor performance; assay: Motor toxicity (TD50) in rats; conditions: rats, oral, 25 mg/kg
# [24] = 3 mg/kg i.v. (60 sec bolus injection)
# [25] = 10 mg/kg i.v. (60 sec bolus injection)
# T3 sequence (H0WCX4 1-619): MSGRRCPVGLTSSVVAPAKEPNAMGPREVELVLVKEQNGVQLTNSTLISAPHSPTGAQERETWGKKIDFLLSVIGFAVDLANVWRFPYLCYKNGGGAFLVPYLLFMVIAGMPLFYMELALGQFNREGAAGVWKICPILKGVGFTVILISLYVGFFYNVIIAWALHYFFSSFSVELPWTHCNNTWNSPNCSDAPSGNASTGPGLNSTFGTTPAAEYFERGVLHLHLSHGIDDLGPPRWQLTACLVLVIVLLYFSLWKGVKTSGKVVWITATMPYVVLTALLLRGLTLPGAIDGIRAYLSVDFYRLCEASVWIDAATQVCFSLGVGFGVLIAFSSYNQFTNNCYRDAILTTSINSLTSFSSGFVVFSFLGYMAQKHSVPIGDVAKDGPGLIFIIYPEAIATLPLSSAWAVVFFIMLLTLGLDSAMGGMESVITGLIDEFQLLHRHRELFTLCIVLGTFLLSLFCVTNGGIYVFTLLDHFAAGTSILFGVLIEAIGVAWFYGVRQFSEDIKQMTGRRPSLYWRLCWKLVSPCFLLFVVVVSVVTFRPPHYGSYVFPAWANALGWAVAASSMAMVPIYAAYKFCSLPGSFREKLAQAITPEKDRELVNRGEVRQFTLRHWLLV
# T2 sequence (Q63380 1-617): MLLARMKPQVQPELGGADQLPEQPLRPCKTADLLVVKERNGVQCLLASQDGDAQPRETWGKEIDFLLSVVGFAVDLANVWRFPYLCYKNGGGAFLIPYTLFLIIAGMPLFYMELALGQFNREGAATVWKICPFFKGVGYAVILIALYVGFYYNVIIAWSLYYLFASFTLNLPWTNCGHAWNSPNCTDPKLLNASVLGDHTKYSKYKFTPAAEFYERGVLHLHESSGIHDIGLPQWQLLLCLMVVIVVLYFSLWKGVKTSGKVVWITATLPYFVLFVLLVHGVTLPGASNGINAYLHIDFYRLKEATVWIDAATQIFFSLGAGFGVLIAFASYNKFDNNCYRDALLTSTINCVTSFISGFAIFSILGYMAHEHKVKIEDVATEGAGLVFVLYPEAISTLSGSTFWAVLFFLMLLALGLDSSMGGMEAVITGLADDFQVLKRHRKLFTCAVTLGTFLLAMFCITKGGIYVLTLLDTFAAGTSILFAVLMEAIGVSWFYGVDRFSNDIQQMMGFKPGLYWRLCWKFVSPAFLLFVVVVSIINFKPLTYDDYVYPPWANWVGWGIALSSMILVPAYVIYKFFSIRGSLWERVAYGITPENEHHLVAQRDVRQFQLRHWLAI
# T1 sequence (P31652 whole entry): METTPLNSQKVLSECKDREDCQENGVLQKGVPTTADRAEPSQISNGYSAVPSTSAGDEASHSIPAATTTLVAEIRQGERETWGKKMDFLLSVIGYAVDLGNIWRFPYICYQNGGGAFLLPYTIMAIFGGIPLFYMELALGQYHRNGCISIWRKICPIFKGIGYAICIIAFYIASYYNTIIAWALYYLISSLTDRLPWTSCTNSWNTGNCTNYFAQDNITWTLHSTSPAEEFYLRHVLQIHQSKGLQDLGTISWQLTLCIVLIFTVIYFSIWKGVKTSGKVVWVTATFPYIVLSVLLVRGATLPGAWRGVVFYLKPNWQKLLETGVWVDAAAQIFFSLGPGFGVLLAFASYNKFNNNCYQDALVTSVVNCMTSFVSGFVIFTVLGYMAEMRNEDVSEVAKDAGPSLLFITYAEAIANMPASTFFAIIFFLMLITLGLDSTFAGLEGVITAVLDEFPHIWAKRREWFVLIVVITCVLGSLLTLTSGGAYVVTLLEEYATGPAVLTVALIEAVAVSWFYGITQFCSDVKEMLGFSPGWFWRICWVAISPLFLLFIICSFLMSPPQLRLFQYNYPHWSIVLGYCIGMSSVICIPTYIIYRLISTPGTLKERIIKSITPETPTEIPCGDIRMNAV
smiles,measurement,setting,value
"CC(N)CC(c1cccc(F)c1)c1cccc(F)c1 (stereo not shown) [Compound 22, 3,3-bis(3-fluorophenyl)-1-methyl-1-propylamine]",ED50,[1]; ip,4.9 mg/kg
same,ED50,[1]; oral,5.1 mg/kg
same,TD50 (inverted grid),[2],26.8 mg/kg
same,IC50,[3],3.45 µM
same,no significant cardiovascular activity in anesthetized rats at doses up to,[4],≤ 4.47 mg/kg
same,LD50,[5],18.3 mg/kg
same,IC50,[6],0.145 µM
"C[C@@H](CN)C(c1cccc(F)c1)c1cccc(F)c1 [Compound 33, 3,3-bis(3-fluorophenyl)-2-methyl-1-propylamine]","analgesic activity, rat 48° C. tail flick test",[7],no significant analgesic activity
same,anticonvulsant activity against maximal electroshock-induced seizures,[8],significant anticonvulsant activity
same,behavioral effects,[9]; [24],licking of the mouth
same,behavioral effects,[9]; [25],"dilated pupils, whole body tremors, incoordination, licking of the mouth, salivation, and panting"
same,IC50,[10],> 10000 nM
same,ED50,[1]; ip,4.6 mg/kg
same,"analgesic activity, rat 52° C. hot plate test",[11],no significant analgesic activity
same,TD50,[12],27.8 mg/kg
same,neuroprotectant activity in a rat model of focal ischemic stroke,[13],significant neuroprotectant activity
same,IC50,[3],0.181 µM
same,no significant cardiovascular activity in anesthetized rats at doses up to,[4],up to 3 mg/kg
same,cardiovascular activity,[14]; 0.3 mg/kg i.v. (60 sec bolus injection),no significant cardiovascular activity
same,mean arterial pressure,[14]; 1 mg/kg i.v. (60 sec bolus injection),transient increases in mean arterial pressure
same,mean arterial pressure,[14]; [24],larger magnitude and longer duration effects
same,heart rate,[14]; [25],a transient increase in heart rate
same,mean arterial pressure,[14]; [25],larger magnitude and longer duration effects
same,changes in the ECG,[14]; doses up to 10 mg/kg i.v. (60 sec bolus injection),no significant drug-induced changes in the ECG
same,"Monoamine uptake binding assays: serotonin uptake binding assay, percent block",[15]; at 0.1 μM,10^g14% at
same,"Monoamine uptake binding assays: serotonin uptake binding assay, percent block",[15]; at 10 μM,0.1^h89% at
same,"Monoamine uptake binding assays: norepinephrine uptake binding assay, percent block",[16]; at 0.1 μM,10^f2% at
same,"Monoamine uptake binding assays: norepinephrine uptake binding assay, percent block",[16]; at 10 μM,0.1^g54% at
same,"analgesic activity, chronic neuropathic pain","[17]; i.p., doses of 3-10 mg/kg",significant analgesic activity
same,"analgesic activity, chronic neuropathic pain","[17]; i.th., doses ranging from 15 to 80 μg",significant analgesic activity
same,dose without neuronal vacuolization,[18],30 mg/kg
same,IC50,[6],0.06 µM
same,behavioral effects,[19]; 8 mg/kg i.p.,"excitation, increased reactivity to touch, and hypothermia"
same,behavioral effects,[19]; 64 mg/kg i.p.,convulsions
same,behavioral effects,[19]; 2 and 4 mg/kg i.p.,no behavioral effects
same,behavioral effects,[19]; 16 and 32 mg/kg i.p.,"excitation, Straub tail, tremor, jumping, stereotypies, hypothermia, and mydriasis"
same,behavioral effects,[19]; 128 and 256 mg/kg i.p.,convulsions and death
same,Central muscarinic cholinergic receptor: percent block of [3H]QNB binding,[20]; at 0.1 μM,42% at
same,Central muscarinic cholinergic receptor: percent block of [3H]QNB binding,[20]; at 10 μM,0.199% at
same,"Monoamine uptake binding assays: dopamine uptake binding assay, percent block",[21]; at 0.1 μM,23% at
same,"Monoamine uptake binding assays: dopamine uptake binding assay, percent block",[21]; at 10 μM,0.1^f86% at
same,IC50,[22],1600 nM
same,motor toxicity,[23],no motor toxicity apparent
